For one assay, the target named is GRP78 (Homo sapiens, UniProt P11021). Kind of assay: ELISA solid phase-binding assay for binding affinity to GRP78. As to conditions: purified recombinant GRP78. On the procedure: ELISA solid phase-binding assay was used to determine the dissociation constant between ISM or cyclic peptide and GRP78 as previously described with minor modification (Nishiuchi, Takagi et al. 2006). 96-well plates were coated with 50 μl of 10 nM cyclic peptide at 4° C. overnight. Nonspecific binding sites were blocked with 1% BSA for 2 h at room temperature. Increasing concentrations of GRP78 were incubated with immobilized cyclic peptide. After washing, the amount of bound GRP78 was quantified by ELISA. The value for Kd was calculated by GraphPad Prism software.
Background: An ELISA detects its analyte on a solid surface through an enzyme-linked reagent.

The next assay relates to B16 melanoma. Kind of assay: Pre-established subcutaneous B16 melanoma growth in mice, intravenous treatment. In kind it is in vivo, mouse. On the procedure:
X-axis represents the days after inoculation of 5×10^5 tumor cells. Groups consisted of mice receiving cRAA and cRKD given in six doses of 250 μg through tail vein injection on days 8, 9, 10, 11, 12 and 13 (5 mice in each group, each mice with one tumor). (b) Tumor weight at the end of the experiment (day 14). (c) Dissected tumors at the end of experiment. […] Paraffin sections of B16 tumors were probed for microvascular density (MVD), tumor cell proliferation and apoptosis through immunofluoresence staining using anti-CD31, anti-PCNA and TUNEL staining respectively. (f) Quantification of MVD, cell proliferation and apoptosis. Plots represent the mean of 3 fields per section, 3 sections per tumor and 2 tumors per group. **P<0.01. Error bars denote SEM.

Another assay relates to endothelial cells (ECs). Put plainly: Apoptosis assay (Cell Death ELISA) in cultured ECs. In kind it is cell-based. As to conditions: cultured ECs in the presence of VEGF, 24 h. The protocol:
ECs (2×10^4 cells per well) in 96-well plate were starved in 2% FBS basal CSC medium for 3 h. Cells were then incubated with peptides of various concentrations and 15 ng/ml VEGF for 24 h. Apoptosis was detected by measuring cytosolic oligonucleosome-bound DNA using a Cell Death ELISA kit purchased from Roche (USA). Plots represented the mean of 3 wells of apoptotic cells in 96 well plate (±SEM).

Structures are written as SMILES. Positions of bridges follow the written chain, without caps; N, C: chain ends. Residues, ends and D or L forms follow the SMILES beside them.

One may read the Kd as the concentration at which binding is half-saturated.

`N=C(N)NCCC[C@@H]1NC(=O)[C@@H](N)CSSC[C@@H](C(=O)O)NC(=O)[C@H](CC(=O)O)NC(=O)[C@H](CCCCN)NC1=O` [cRKD, Cyclic CRKDC peptide] (H-CRKDC-OH; disulfide 1-5; N-terminus and C-terminus assumed): the Kd at GRP78 was found to be 9.6 nM. Besides, the “tumor angiogenesis, proliferation and apoptosis in pre-established B16 tumor” value in the assay on B16 melanoma (anti-CD31, anti-PCNA and TUNEL staining) was “suppressed tumor angiogenesis, proliferation and induced apoptosis”. Moreover, the “vascularization of pre-established B16 tumors” value in the assay on B16 melanoma (compared to control) is given as “reduced vascularization”. In addition, the “pre-established B16 tumor growth” value in the assay with B16 melanoma (six doses of 250 μg tail vein on days 8-13) was “inhibits pre-established subcutaneous B16 melanoma growth”. Moreover, the “induction of EC apoptosis (pro-apoptotic activity)” value was “potently induced apoptosis” in the assay with endothelial cells (ECs) and “equally potent comparing to “RKLYD”” in the assay with endothelial cells (ECs) (listed as RKD).

(Values after US20160002297A1, “THERAPEUTIC AGENTS” (NATIONAL UNIVERSITY OF SINGAPORE, priority 2013, published 2016).)
